In patent US10632117B2, “GSK3B and uses thereof in the diagnostic and treatment of hypopigmentation disorders” (INSERM (INSTITUT NATIONAL DE LA SANTE ET DE LA RECHERCHE …, priority 2014, dated 2020):

Experiments:
Format in all cases: cell-based, human
WNT pathway = test: Ex vivo culture of lesional vitiligo skin biopsies with WNT pathway activators, RT-qPCR of WNT family and LEF; settings: 14 days, stimulation every other day, CHIR99021 3 μM, LiCl 20 μM, SKL2001 40 μM
Method: (§1) For vitiligo skin biopsies, after verification of the absence of melanocytes with Wood's lamp, two or three 6 mm biopsies composed of dermis plus epidermis were taken into lesional skin from vitiligo patients (n=9). The biopsies are rapidly put on transwell chamber of 0.4 μm (Becton Dickinson) and kept on semi liquid culture conditions in “Skin long term culture medium” (Biopredic). The skin was maintained at 37° C. in a wet 5% CO2, atmosphere.
(§2) The culture medium supplemented with Forskolin (Sigma Aldrich), LiCl (Sigma Aldrich), CHIR99021 (Calbiochem) or SKL2001 (Calbiochem) was changed […] during 14 days.
(§3) mRNA from melanocytes and keratinocytes was extracted with RNeasy kit (Qiagen). The biopsies are cut and disrupted with tissue ruptor (Qiagen) and the mRNA was extracted with RNeasy kit (Qiagen). cDNA were synthesized from 300 ng to 1 μg of mRNA with the Reverse Transcription System (Promega). Relative quantification of gene expression was measured by real time qPCR with Sybr green reagent (Life technology) on Step one system.
(§4) In order to induce the differentiation of melanocyte stem cells, they pharmacologically activated the WNT pathway in vitiligo skin cultured ex vivo as shown previously. They used two methods to activate the WNT pathway: a WNT agonist (SKL2001) and two GSK3β inhibitors: lithium chloride (LiCl) and a commercial specific inhibitor (CHIR99021). They biopsied 9 vitiligo subjects (6 mm punch) on diverse body locations ([…], 2 on trunk, 2 on leg, 1 on arm and 1 on axilla) and treated the ex vivo culture model during 14 days with a systemic stimulation every other day with the WNT activators.
(§5) They evaluated the activation of WNT pathway by the mRNA level of WNTs (TCF/LEF1 and the melanogenesis pathway by the mRNA level of MITF, DCT, PAX3 and BRn2) within the skin.

[1] = tested on: depigmented skin from vitiligo patients; test: Ex vivo culture of lesional vitiligo skin biopsies, RT-qPCR of melanoblast / pre-melanocyte markers; settings: 14 days, SKL2001 40 μM; for mRNA level of early melanoblast marker Brn2 / mRNA level of early melanoblast marker PAX3: CHIR99021 3 μM, LiCl 20 μM
Method: as §1, §2, §3, §4, §5

[2] = tested on: melanocyte stem cells in depigmented skin from vitiligo patients; test: Ex vivo depigmented vitiligo skin, immunohistostaining for co-expression of DCT and PAX3; settings: 14 days, every other day, SKL2001 40 μM, CHIR99021 3 μM, LiCl 20 μM, immunofluorescence
Method: Depigmented skin from vitiligo patients [A (control culture medium)] were stimulated in ex vivo culture with WNT agonist SKL2001 (40 μM) (B), GSK3β inhibitor CHIR99021 (3 μM) (C) or GSK3β inhibitor LiCl 20 μM (D) every other day to activate the WNT pathway. After 14 days, the skin response was analyzed by immunohistostaining with pre-melanocytes markers: a DCT staining (green) and PAX3 staining (red).
as §1, §2
Biopsies were fixed with 4% formol, embedded in paraffin, cut with microtome of […] sections and fixed on superfrost plus slides (Thermoscientific). […]

NHM (melanocytes) = test: Oxidative stress (H2O2) in NHM: qPCR of LEF and WNT family, TCF/LEF luciferase reporter; settings: 24 hours, 25 to 100 μM H2O2
Method: (§6) NHM (A) and NHK (B) and whole skin in ex vivo culture (C) were stimulated 24 hours with 25 to 100 μM of H2O2. After mRNA extraction, a reverse transcription was performed and the relative gene expression of LEF1 was analyzed with qPCR.
(§7) (A) NHM, (B) NHK and (C) whole skin in ex vivo culture were stimulated 24 hours with 25 to 100 μM of H2O2. After mRNA extraction, a reverse transcription was performed and the relative gene expression of WNT family was analyzed with qPCR.
(§8) NHMs and NHKs are obtained from the foreskin of phototype IV children as described previously. Briefly, epidermal cells are obtained by overnight digestion of the skin in a dispase solution (Roche) at 4° C. followed by the digestion of the epidermis in a trypsin/EDTA solution during 20 minutes at 37° C. […]
(§9) mRNA from melanocytes and keratinocytes was extracted with RNeasy kit (Qiagen). […] Relative quantification of gene expression was measured by real time qPCR with Sybr green reagent (Life technology) on Step one system.
(§10) NHK and NHM were co-infected with the lentivirus TCF/LEF Reporter Luciferase and Cignal Lenti Reporter Control Renilla (Qiagen) and the infected cells were selected with Puromycin for 14 days. NHM and NHK selected were stimulated 24 h with SKL2001 and H2O2 and the TCF/LEF activity was measured with Dual Luciferase Reporter Assay System (Promega).

NHK (keratinocytes) = test: Oxidative stress (H2O2) in NHK: qPCR of LEF and WNT family, TCF/LEF luciferase reporter; settings: 24 hours, 25 to 100 μM H2O2
Method: as §6, §7, §8, §9, §10

[3] = tested on: whole skin in ex vivo culture; test: Oxidative stress (H2O2) in whole skin in ex vivo culture: qPCR of LEF and WNT family; settings: skin biopsies ex vivo, 24 hours, 25 to 100 μM H2O2
Method: as §6, §7
Skin from abdominoplasty surgery was used to the development of the ex vivo skin culture model. The subcutaneous fat was removed and biopsies of 6 mm were done in the skin composed of dermis and epidermis.
as §3

Compound | relative expression of LEF mRNA (WNT pathway) | relative expression of WNT family mRNA (WNT pathway) | mRNA level of early melanoblast marker Brn2 [1] | mRNA level of early melanoblast marker PAX3 [1] | level of MITF mRNA [1] | co-expression of DCT and PAX3 (differentiation of melanocyte stem cells into pre-melanocytes) [2] | expression of LEF (NHM (melanocytes)) | expression of the majority of WNT (NHM (melanocytes)) | expression of LEF (NHK (keratinocytes)) | expression of the majority of WNT (NHK (keratinocytes)) | expression of LEF [3] | expression of most of the WNT family [3]
O=C(NCCCn1ccnc1)c1cc(-c2ccco2)on1 [SKL2001] | increase | increase | up-regulated | up-regulated | increased | melanoblast in differentiation within the dermis |  |  |  |  |  | 
Cc1c[nH]c(-c2cnc(NCCNc3ccc(C#N)cn3)nc2-c2ccc(Cl)cc2Cl)n1 [CHIR99021] | increase | increase | up-regulated | up-regulated |  | melanoblast in differentiation within the dermis |  |  |  |  |  | 
OO [H2O2] |  |  |  |  |  |  | decreased | decreased | decreased | decreased | decrease | decrease
